The values that follow are results of earlier work, collected in patent US12533344B2, “Formulations” (Glaukos Corporation, priority 2021, dated 2026).

Like-named read-outs stand apart in the source and are kept apart here.

The conditions of the data set: for Effective Buffering Range: pH range.

With `O=C1O[C@H]([C@@H](O)CO)C(O)=C1O` [Ascorbic acid], the “Effective Buffering Range” value is given as 3.3-6.2.
On to `CC(O)C(=O)O` (stereo not shown) [Lactic acid], for which the “Effective Buffering Range” value was 2.8-5.3.
On to `O=C(O)CCCCCCCC(=O)O` [Azeliac acid], for which the “Effective Buffering Range” value is reported as 3.3-6.0. Besides, the pKa (commonly the negative logarithm of the acid dissociation constant) (buffers and stabilizers of Table 1) was 4.60.
As for `CC[C@@H]1C(=O)OC[C@@H]1Cc1cncn1C` [pilocarpine, reference compound], the pKa of pilocarpine is reported as around 6.5.
Regarding Citrate buffer, the “Effective Buffering Range” value runs as follows: (listed as Citrate buffer-pKa1) 2.2-5.0; (listed as Citrate buffer-pKa2) 3.0-6.2.
